Entries after “also recorded” stand apart in the source; their conditions may differ.
How the values were obtained:
Type in all cases: cell-based, human
muscarinic receptor = test: Ex vivo isometric force contraction of muscle strips from transplanted hAGO +SM +ENS in an organ bath
ENS = system: ENS
ENCCs = test: Expression of BMP ligands in ENCC culture (qRT-PCR); settings: ENCC culture treated with NOG; FIG. 15B
Experimental: (§1) One candidate pathway was BMP signaling, which is known to promote posterior fate in the gastrointestinal junction. Analysis of ENCCs show high levels of expression of both BMP4 and BMP7 (FIG. 15A). To functionally investigate if BMP activity might mediate the ability of ENCCs to promote a Brunner's gland fate, ENCCs were recombined with hAGO at day 6 and then organoids were cultured with the BMP inhibitor Noggin (NOG) from day 6-9, along with RA, which is a component of the normal hAGO protocol. None of the grafts (0 out of 27) had Brunner's gland epithelium following 3 days of Noggin treatment as compared to hAGOs +ENCCs added at day 9 not treated with NOG (5 out of 21 grafts). […]
RNA isolation and quantitative real-time PCR (qRT-PCR): Spheroids and organoids were harvested in RAI Lysis Buffer and β-mercapethanol and stored at −80° C. until total RNA was isolated using NucleoSpin RNA Isolation Kit (Macherey-Nagel) according to manufacturers' instructions. Complementary DNA (cDNA) was reverse transcribed from 116 ng of RNA using a SuperScript VILO cDNA Synthesis Kit (Invitrogen). qRT-PCR was performed using a QuantiTect SYBR Green PCR Kit (Qiagen) in MicroAmp EnduraPlate Optical 96-Well Fast Reaction Plates (Applied Biosystems) and run on a QuantStudio 6 Real-Time PCR Detection System (Applied Biosystems). […]

hAGOs +ENCCs = test: Brunner's gland epithelium in grafts of hAGOs recombined with ENCCs and transplanted into mice; settings: ENCCs recombined at day 6, Noggin day 6-9 (3 days) along with RA; compared with 5 out of 21 grafts not treated
Experimental: as §1
Recombination and additional spheroid patterning: Single cell suspensions of mesenchymal cells and ENCCs were counted and added to foregut spheroids at an approximate ratio of 1,000 ENCCs and 2,500 mesenchyme cells per spheroid. […]
In vivo transplantation of hAGOs and hFGOs: hAGO, hFGO, hAGO +ENS, hAGO +SM +ENS, hAGO +SM +ENS, and hFGO +SM +ENS were all ectopically transplanted into the kidney capsule of NSG mice. […] Engrafted organoids were harvested 6-15 weeks after transplantation and analyzed for neuroglial, epithelial, and mesenchymal maturation.

## CC(C[N+](C)(C)C)OC(N)=O (stereo not drawn) [bethanechol, Carbamyl-β-methylcholine chloride]
Muscarinic receptor; 1 nM to 10 mM at 2 min intervals, tissue strips of transplanted hAGO +SM +ENS, FIG. 4C
  contractility (smooth muscle force contraction), dose response: increased in response to bethanechol in a dose-dependent manner
Muscarinic receptor; bethanechol dose response before scopolamine, normalized to muscle strip mass, n=3, FIG. 4D
  normalized mean maximal tension: 236.9 g/g

## CN1[C@@H]2C[C@@H](OC(=O)[C@H](CO)c3ccccc3)C[C@H]1[C@@H]1O[C@@H]12 [scopolamine]
Muscarinic receptor
  reversal of contractions / muscle relaxation: contractions were able to be reversed and muscle relaxation induced

## NC1=N[C@H](O)[C@H]2[C@H]3O[C@]4(O)O[C@@H]([C@@H](O)[C@@]2(N1)[C@@H]4O)[C@]3(O)CO [tetrodotoxin]
ENS
  EFS-stimulated contractile activity (change in AUC): abolished the ability of EFS to stimulate contractile activity; also recorded: abrogating EFS-mediated contractions

B1: Noggin: BMP inhibitor Noggin (NOG) (protein, UniProt Q13253 28-232, looked up)
Noggin: QHYLHIRPAPSDNLPLVDLIEHPDPIFDPKEKDLNETLLRSLLGGHYDPGFMATSPPEDRPGGGGGAAGGAEDLAELDQLLRQRPSGAMPSEIKGLEFSEGLAQGKKQRLSKKLRRKLQMWLWSQTFCPVLYAWNDLGSRFWPRYVKVGSCFSKRSCSVPEGMVCKPSKSVHLTVLRWRCQRRGGQRCGWIPIQYPIISECKCSC
ENCCs
  levels of BMP4 and BMP7 expression: significantly reduced levels of both BMP4 and 7
hAGOs +ENCCs
  grafts with Brunner's gland epithelium: 0 out of 27

Source: patent US20240318145A1, “STRUCTURALLY COMPLETE ORGANOIDS” (Children's Hospital Medical Center, priority 2021, published 2024)
